Data set [1] in a line: H+/Na+ transport assay of bead-derived peptides (one-point).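 Note: relative to parent gramicidin A activity set to 1.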 The arrangement: key: relative activity; mean of two control wells = 1.00. As to conditions: bead-derived peptide solution, EYPC/EYPG LUVs. It counts as biochemical. In outline: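 One-point screen: peptide + pyranine-loaded LUVs, 30 min RT with vortexing, 96-well. Read-out is fluorescence intensity scaled as 100 × (Ix – I0)/(Imax – I0). Imax from Triton X-100, I0 from untreated vesicles, and the mean of the two control wells is set to 1.00.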

For data set [2] the following is noted: cell viability/%. In outline:
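P388 cells at 1 × 10^4 cells/mL (final) were exposed to library peptides (stocks diluted 250-fold in RPMI1640/10% FBS) for 92 h at 37 °C, 5% CO2. Viable cells were counted by WST-1/1-methoxy PMS (4 h), absorbance 415 nm, and expressed as cell viability (%).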

In data set [3] the test system is Streptococcus pyogenes SSI-9. Nature of the data set: Antibacterial activity assay of bead-derived peptides (three concentrations). It counts as cell-based. More on the design: key: +++: inhibition by the 640-fold diluted peptide solution; ++: inhibition by the 160-fold diluted solution; +: inhibition by the 40-fold diluted solution; -: no inhibition. The settings on record: S. pyogenes, bead-derived peptide solution, three concentrations. Put shortly: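 Library peptide stock applied undiluted, 4-fold and 16-fold diluted in DMSO to S. pyogenes SSI-9 (2 × 10^5 CFU) in cation-adjusted Mueller Hinton broth with 5% laked horse blood. After 18 h at 37 °C, growth judged by visible cell precipitation.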

Where a SMILES comes first, the peptide text is derived from it. [ ]: non-standard residue; d: D form. The star is where a group is joined. NHCH2CH2OH = OCCN*; For = O=C*

What is called viability is a read-out of living cells in per cent, often relative to untreated cells. `CC(C)C[C@@H](NC(=O)[C@H](C)NC(=O)[C@H](NC(=O)[C@H](C)NC(=O)CNC(=O)[C@@H](NC=O)C(C)C)[C@H](C)O)C(=O)N[C@H](C(=O)N[C@@H](C(=O)N[C@@H](Cc1c[nH]c2ccccc12)C(=O)N[C@@H](C(=O)N[C@@H](Cc1c[nH]c2ccccc12)C(=O)N[C@H](CC(C)C)C(=O)N[C@@H](Cc1c[nH]c2ccccc12)C(=O)N[C@H](CC(C)C)C(=O)N[C@@H](Cc1c[nH]c2ccccc12)C(=O)NCCO)[C@H](C)O)C(C)C)C(C)C` [compound 6896] (For-VGA[dT]A[dL]V[dV]W[dT]W[dL]W[dL]W-NHCH2CH2OH): the “H+/Na+ transport activity normalized against the value of 1 (1.00)” value (shortened to “H+/Na+ transport activity normalized”) in data set [1] came to 1.18. The viability in data set [2] is 100%. Moreover, in data set [3], the antibacterial activity entry is “-”.

`CC(C)C[C@@H](NC(=O)[C@H](C)NC(=O)CNC(=O)[C@@H](NC=O)C(C)C)C(=O)N[C@@H](C)C(=O)N[C@@H](C(=O)N[C@H](C(=O)N[C@H](CC(C)C)C(=O)N[C@@H](Cc1c[nH]c2ccccc12)C(=O)N[C@@H](C(=O)N[C@@H](Cc1c[nH]c2ccccc12)C(=O)N[C@H](CC(C)C)C(=O)N[C@@H](Cc1c[nH]c2ccccc12)C(=O)N[C@H](CC(C)C)C(=O)N[C@@H](Cc1c[nH]c2ccccc12)C(=O)NCCO)C(C)C)C(C)C)C(C)C` [compound 7532] (For-VGA[dL]A[dV]V[dL]W[dV]W[dL]W[dL]W-NHCH2CH2OH): in data set [1], the “H+/Na+ transport activity normalized” value worked out at 1.03. Moreover, the viability in data set [2] stood at 3.9%. Moreover, the antibacterial activity entry in data set [3] was “+”.

Turning to `CC(C)C[C@@H](NC(=O)[C@H](C)NC(=O)CNC(=O)[C@@H](NC=O)C(C)C)C(=O)N[C@@H](C)C(=O)N[C@H](CC(C)C)C(=O)N[C@H](C(=O)N[C@H](CC(C)C)C(=O)N[C@@H](Cc1c[nH]c2ccccc12)C(=O)N[C@@H](C(=O)N[C@@H](Cc1c[nH]c2ccccc12)C(=O)N[C@H](CC(C)C)C(=O)N[C@@H](Cc1c[nH]c2ccccc12)C(=O)N[C@@H](C(=O)N[C@@H](Cc1c[nH]c2ccccc12)C(=O)NCCO)C(C)C)[C@H](C)O)C(C)C` [compound 5561] (For-VGA[dL]A[dL]V[dL]W[dT]W[dL]W[dV]W-NHCH2CH2OH), in data set [1], the “H+/Na+ transport activity normalized” value was found to be 1.05. The same compound yielded a viability in data set [2] of 100%. Moreover, the antibacterial activity entry in data set [3] is listed as “-”.

As to `CC(C)C[C@@H](NC(=O)[C@H](C)NC(=O)CNC(=O)[C@@H](NC=O)C(C)C)C(=O)N[C@@H](C)C(=O)N[C@@H](C(=O)N[C@H](C(=O)N[C@H](CC(C)C)C(=O)N[C@@H](Cc1c[nH]c2ccccc12)C(=O)N[C@@H](C(=O)N[C@@H](Cc1c[nH]c2ccccc12)C(=O)N[C@H](CC(C)C)C(=O)N[C@@H](Cc1c[nH]c2ccccc12)C(=O)N[C@@H](C(=O)N[C@@H](Cc1c[nH]c2ccccc12)C(=O)NCCO)C(C)C)[C@H](C)O)C(C)C)C(C)C` [compound 1253] (For-VGA[dL]A[dV]V[dL]W[dT]W[dL]W[dV]W-NHCH2CH2OH), the “H+/Na+ transport activity normalized” value in data set [1] amounted to 1.03. Moreover, the viability in data set [2] was 58.1%. Further, in data set [3], the antibacterial activity result is given as “-”.

As for `CNC(=O)C[C@@H](NC(=O)[C@H](C)NC(=O)[C@@H](CC(C)C)NC(=O)[C@H](C)NC(=O)CNC(=O)[C@@H](NC=O)C(C)C)C(=O)N[C@H](C(=O)N[C@@H](C(=O)N[C@@H](Cc1c[nH]c2ccccc12)C(=O)N[C@H](CC(C)C)C(=O)N[C@@H](Cc1c[nH]c2ccccc12)C(=O)N[C@@H](C(=O)N[C@@H](Cc1c[nH]c2ccccc12)C(=O)N[C@@H](C(=O)N[C@@H](Cc1c[nH]c2ccccc12)C(=O)NCCO)C(C)C)C(C)C)C(C)C)C(C)C` [compound 11290] (For-VGA[dL]A[dD](NHMe)V[dV]W[dL]W[dV]W[dV]W-NHCH2CH2OH), the “H+/Na+ transport activity normalized” value in data set [1] stood at 1.47. The compound also gave a viability in data set [2] of 87.6%. The antibacterial activity entry in data set [3] was “-”.

As to `CC(C)C[C@@H](NC(=O)[C@H](C)NC(=O)CNC(=O)[C@@H](NC=O)C(C)C)C(=O)N[C@@H](C)C(=O)N[C@@H](C(=O)N[C@H](C(=O)N[C@H](CC(C)C)C(=O)N[C@@H](Cc1c[nH]c2ccccc12)C(=O)N[C@H](CC(C)C)C(=O)N[C@@H](Cc1c[nH]c2ccccc12)C(=O)N[C@H](CC(C)C)C(=O)N[C@@H](Cc1c[nH]c2ccccc12)C(=O)N[C@@H](C(=O)N[C@@H](Cc1c[nH]c2ccccc12)C(=O)NCCO)[C@H](C)O)C(C)C)C(C)C` [compound 1975] (For-VGA[dL]A[dV]V[dL]W[dL]W[dL]W[dT]W-NHCH2CH2OH), the “H+/Na+ transport activity normalized” value in data set [1] came to 1.04. Also, in data set [2], the viability was found to be 100%. Further, in data set [3], the antibacterial activity result is on record as “+”.

On to `CC(C)C[C@@H](NC(=O)[C@H](C)NC(=O)CNC(=O)[C@@H](NC=O)C(C)C)C(=O)N[C@@H](C)C(=O)N[C@H](CC(C)C)C(=O)N[C@H](C(=O)N[C@@H](C(=O)N[C@@H](Cc1c[nH]c2ccccc12)C(=O)N[C@@H](C(=O)N[C@@H](Cc1c[nH]c2ccccc12)C(=O)N[C@H](CC(C)C)C(=O)N[C@@H](Cc1c[nH]c2ccccc12)C(=O)N[C@@H](C(=O)N[C@@H](Cc1c[nH]c2ccccc12)C(=O)NCCO)[C@H](C)O)C(C)C)C(C)C)C(C)C` [compound 9823] (For-VGA[dL]A[dL]V[dV]W[dV]W[dL]W[dT]W-NHCH2CH2OH), for which the “H+/Na+ transport activity normalized” value in data set [1] is 1.08. For the same compound, the viability in data set [2] was found to be 100%. Also, in data set [3], the antibacterial activity result is reported as “-”.

For `CNC(=O)C[C@@H](NC(=O)[C@@H](NC(=O)[C@H](NC(=O)[C@H](C)NC(=O)[C@@H](CC(C)C)NC(=O)[C@H](C)NC(=O)CNC(=O)[C@@H](NC=O)C(C)C)C(C)C)C(C)C)C(=O)N[C@@H](Cc1c[nH]c2ccccc12)C(=O)N[C@H](CC(C)C)C(=O)N[C@@H](Cc1c[nH]c2ccccc12)C(=O)N[C@@H](C(=O)N[C@@H](Cc1c[nH]c2ccccc12)C(=O)N[C@@H](C(=O)N[C@@H](Cc1c[nH]c2ccccc12)C(=O)NCCO)C(C)C)C(C)C` [compound 2195] (For-VGA[dL]A[dV]V[dD](NHMe)W[dL]W[dV]W[dV]W-NHCH2CH2OH), the “H+/Na+ transport activity normalized” value in data set [1] was 1.34. For the same compound, the viability in data set [2] is 100%. The antibacterial activity entry in data set [3] is on record as “-”.

`CC(C)C[C@@H](NC(=O)[C@H](C)NC(=O)[C@H](NC(=O)[C@H](C)NC(=O)CNC(=O)[C@@H](NC=O)C(C)C)[C@H](C)O)C(=O)N[C@H](C(=O)N[C@H](CC(C)C)C(=O)N[C@@H](Cc1c[nH]c2ccccc12)C(=O)N[C@@H](C(=O)N[C@@H](Cc1c[nH]c2ccccc12)C(=O)N[C@H](CC(C)C)C(=O)N[C@@H](Cc1c[nH]c2ccccc12)C(=O)N[C@H](CC(C)C)C(=O)N[C@@H](Cc1c[nH]c2ccccc12)C(=O)NCCO)[C@H](C)O)C(C)C` [compound 131] (For-VGA[dT]A[dL]V[dL]W[dT]W[dL]W[dL]W-NHCH2CH2OH): in data set [1], the “H+/Na+ transport activity normalized” value is 1.10. The compound also came in with a viability in data set [2] of 100%. Besides, the antibacterial activity entry in data set [3] is “-”.

As for `CC(C)C[C@@H](NC(=O)[C@H](C)NC(=O)CNC(=O)[C@@H](NC=O)C(C)C)C(=O)N[C@@H](C)C(=O)N[C@H](CC(C)C)C(=O)N[C@H](C(=O)N[C@H](CC(C)C)C(=O)N[C@@H](Cc1c[nH]c2ccccc12)C(=O)N[C@H](CC(C)C)C(=O)N[C@@H](Cc1c[nH]c2ccccc12)C(=O)N[C@@H](C(=O)N[C@@H](Cc1c[nH]c2ccccc12)C(=O)N[C@@H](C(=O)N[C@@H](Cc1c[nH]c2ccccc12)C(=O)NCCO)[C@H](C)O)[C@H](C)O)C(C)C` [compound 7156] (For-VGA[dL]A[dL]V[dL]W[dL]W[dT]W[dT]W-NHCH2CH2OH), in data set [1], the “H+/Na+ transport activity normalized” value is 1.08. In data set [2], this compound came in with a viability of 100%. Further, the antibacterial activity entry in data set [3] is given as “-”.

For the compound `CNC(=O)C[C@@H](NC(=O)[C@H](Cc1c[nH]c2ccccc12)NC(=O)[C@H](NC(=O)[C@H](Cc1c[nH]c2ccccc12)NC(=O)[C@H](NC(=O)[C@H](Cc1c[nH]c2ccccc12)NC(=O)[C@@H](CC(C)C)NC(=O)[C@@H](NC(=O)[C@@H](CC(C)C)NC(=O)[C@H](C)NC(=O)[C@H](NC(=O)[C@H](C)NC(=O)CNC(=O)[C@@H](NC=O)C(C)C)C(C)C)C(C)C)C(C)C)C(C)C)C(=O)N[C@@H](Cc1c[nH]c2ccccc12)C(=O)NCCO` [compound 3866] (For-VGA[dV]A[dL]V[dL]W[dV]W[dV]W[dD](NHMe)W-NHCH2CH2OH), the “H+/Na+ transport activity normalized” value in data set [1] was 1.31. The compound also yielded a viability in data set [2] of 100%. For the same compound, the antibacterial activity entry in data set [3] was “-”.

On to `CNC(=O)C[C@@H](NC(=O)[C@H](Cc1c[nH]c2ccccc12)NC(=O)[C@@H](CC(C)C)NC(=O)[C@H](Cc1c[nH]c2ccccc12)NC(=O)[C@H](NC(=O)[C@H](Cc1c[nH]c2ccccc12)NC(=O)[C@@H](CC(C)C)NC(=O)[C@@H](NC(=O)[C@@H](CC(C)C)NC(=O)[C@H](C)NC(=O)[C@@H](CC(C)C)NC(=O)[C@H](C)NC(=O)CNC(=O)[C@@H](NC=O)C(C)C)C(C)C)[C@H](C)O)C(=O)N[C@@H](Cc1c[nH]c2ccccc12)C(=O)NCCO` [compound 13033] (For-VGA[dL]A[dL]V[dL]W[dT]W[dL]W[dD](NHMe)W-NHCH2CH2OH), for which the “H+/Na+ transport activity normalized” value in data set [1] is recorded as 1.01. In addition, in data set [2], the viability was 100%. The antibacterial activity result in data set [3] is reported as “-”.

(Values after article PMC7531004, “Discovery of gramicidin A analogues with altered activities by multidimensional screening of a one-bead-one-compound library” (Nature Communications, 2020).)
